The source of these data is patent US11286268B1, “EIF4E-inhibiting compounds and methods” (EFFECTOR THERAPEUTICS, INC., priority 2019, dated 2022).

Where two headings read alike, the source gives them in different places.

The target in this test is recombinant eIF4E (Homo sapiens (Human), UniProt P06730). As to the kind of experiment: Fluorescence polarization competition assay for eIF4E binding potency. The essentials:
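IC50 values reflect 50% displacement of 20 nM EDA-m7GDP-ATTO-550 from 75 nM eIF4E, measured by fluorescence polarization after 30 min at room temperature. Buffer: 20 mM Tris pH 7.5, 100 mM NaCl, 1 mM DTT, 0.02% Tween-20; 1% DMSO.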
On the technique in general: In fluorescence polarisation assays a small probe gives low polarisation when free and higher when bound to something large.

Where [1] appears, read: fluorescence polarization competition, 75 nM recombinant eIF4E, 20 nM EDA-m7GDP-ATTO-550, IC50 class, read-out: elF4E FP.
Where [2] appears, read: inhibition of eIF4E/EDA-m7GDP-ATTO-550 binding by 50%, Table 4B calculated values, read-out: IC50.
The mark [3] stands for this setting: inhibition of eIF4E/EDA-m7GDP-ATTO-550 binding, calculated IC50 values, Table 4B, read-out: IC50.

Chain of recombinant eIF4E (P06730 whole entry): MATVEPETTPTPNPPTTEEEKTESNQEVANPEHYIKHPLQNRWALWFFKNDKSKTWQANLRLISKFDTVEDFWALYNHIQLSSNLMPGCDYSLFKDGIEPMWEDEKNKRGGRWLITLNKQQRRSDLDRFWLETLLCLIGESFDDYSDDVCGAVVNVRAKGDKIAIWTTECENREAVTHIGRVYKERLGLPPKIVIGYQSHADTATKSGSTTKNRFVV

For `Cc1cc(-c2cc(Cl)ccc2OCCn2c(C)nc3c(C)ncc(C#N)c3c2=O)c2scc(C(O)C(F)(F)F)c2n1` (stereo not drawn) [compound 733], the IC50 by setting is: under setting [1], more than 1000 nM; under setting [2], 1730 nM. Take `Cc1nc2cncc(C#N)c2c(=O)n1CCOc1ccc(Cl)cc1-c1ccnc2c(C(=O)O)csc12` [compound 140]: the IC50 reads like this: under setting [1], 50 to 1000 nM; under setting [2], 50 nM. Regarding `CCN(c1ncc2nc(C)n(CC#Cc3ccc(Cl)cc3-c3ccnc4c(C(=O)NS(=O)(=O)c5ccncc5)csc34)c(=O)c2c1C#N)C1CCN(C2COC2)CC1` [compound 1740], the IC50 under setting [3] is 12.6 nM. Consider `COC1CN(c2c(C(F)(F)F)cc3nc(C)n(CCOc4ccc(Cl)cc4-c4cc(C)nc5c(C(=O)O)csc45)c(=O)c3c2C#N)C1` [compound 1009], for which the IC50 reads like this: under setting [1], less than 50 nM; under setting [2], 6.23 nM. Taken in the same sequence, the figures for `Cc1nc2cc(C(F)(F)F)c(N3CCN(C)CC3)c(C#N)c2c(=O)n1CCOc1ccc(Cl)cc1-c1ccnc2ccsc12` [compound 705] were less than 50 nM and 19.1 nM. The like results for `Cc1nc2ccc(CCN(C)C)c(C#N)c2c(=O)n1CCOc1ccc(Cl)cc1-c1cc(OC(F)F)nc2c(C(=O)O)csc12` [compound 575] were, in that order, less than 50 nM and 25.7 nM. The like results for `Cc1nc2cnc(N(C)[C@H]3CC[C@@H](N4CC(F)(F)C4)CC3)c(C#N)c2c(=O)n1CC#Cc1ccc(Cl)cc1-c1ccnc2c(C(=O)O)csc12` [compound 1100] were, in that order, less than 50 nM and 33.5 nM. Consider `Cc1cc(-c2cc(Cl)ccc2OCCn2c(C)nc3c(C)ncc(C#N)c3c2=O)c2scc(C(=O)NS(C)(=O)=O)c2n1` [compound 731], for which the IC50 under setting [1] was less than 50 nM and the IC50 under setting [2] was 5.97 nM. Take `Cc1nc2cnc(N(C)[C@H]3CC[C@H](N(CC(F)F)C(C)CO)CC3)c(C#N)c2c(=O)n1CC#Cc1ccc(Cl)cc1-c1ccnc2c(C(=O)O)csc12` (stereo partly drawn) [compound 1579]: under setting [3], the IC50 is 30.3 nM. As to `Cc1nc2cnc(C#N)cc2c(=O)n1CC#Cc1ccc(Cl)cc1-c1ccnc2c(C(=O)O)csc12` [compound 625], the IC50 under setting [1] was in the range of 50 to 1000 nM and the IC50 under setting [2] was 78 nM. The like results for `Cc1cc(-c2cc(Cl)ccc2OCCn2c(C)nc3cc(C(F)(F)F)c(-c4cccnc4C)c(C#N)c3c2=O)c2scc(C(=O)O)c2n1` [compound 735] were, in that order, 50 to 1000 nM and 58 nM. The like results for `Cc1c(C(F)(F)F)c2cc(C(F)(F)F)cc(C#N)c2c(=O)n1CCOc1ccc(Cl)cc1-c1ccnc2c(C(=O)O)csc12` [compound 268] were, in that order, less than 50 nM and 34.1 nM. Regarding `Cc1nc2cnc(C(F)(F)C3CCN(CC(F)F)CC3)c(C#N)c2c(=O)n1CC#Cc1ccc(Cl)cc1-c1ccnc2c(C(=O)O)csc12` [compound 1572], the IC50 under setting [3] is 20 nM. Turning to `Cc1cc(-c2cc(Cl)ccc2OCCn2c(C)nc3cc(C(F)(F)F)c(N4CCN(C)CC4)c(C#N)c3c2=O)cc(C)n1` [compound 835], the IC50 runs as follows: under setting [1], less than 50 nM; under setting [2], 29.3 nM. Turning to `CC#Cc1nc2c(=O)n(CCOc3ccc(Cl)cc3-c3cc(C)nc4c(C(=O)O)csc34)c(C)nc2cc1C(F)(F)F` [compound 784], the IC50 was less than 50 nM under setting [1] and 13.7 nM under setting [2]. `Cc1nc2cc(Cl)c3c(cnn3C)c2c(=O)n1CCOc1ccc(Cl)cc1-c1ccnc2c(C(=O)O)csc12` [compound 720]: the IC50 under setting [1] was 50 to 1000 nM and the IC50 under setting [2] was 199 nM. As to `Cc1cc(-c2cc(Cl)ccc2OCCn2c(C)nc3cnc(C4CCCC4(F)F)c(C#N)c3c2=O)c2scc(C(=O)O)c2n1` (stereo not drawn) [compound 929], the IC50 under setting [1] was less than 50 nM and the IC50 under setting [2] was 22.5 nM. Taken in the same sequence, the figures for `CCc1cc(-c2cc(Cl)ccc2OCCn2c(=O)[nH]c3cc(Cl)cc(C#N)c3c2=O)c2scc(C(=O)O)c2n1` [compound 1078] were 50 to 1000 nM and 347 nM. For the molecule `Cc1nc2cnc(N3CCN(C)C(CF)C3)c(C#N)c2c(=O)n1CC#Cc1ccc(Cl)cc1-c1ccnc2c(C(=O)O)csc12` (stereo not drawn) [compound 1459], the IC50 under setting [3] was 20.7 nM. For `Cc1cc(-c2cc(Cl)ccc2OCCn2c(C)nc3cc(C(F)(F)F)c(CN4CCN(C)CC4)c(C#N)c3c2=O)c2scc(C(=O)O)c2n1` [compound 485], the IC50 under setting [1] is less than 50 nM and the IC50 under setting [2] was 8.59 nM.

In the case of `O=C(O)c1cccc(-c2cc(Cl)ccc2OCCn2cnc3cc(F)ccc3c2=O)c1` [compound 3], the IC50 by setting is: under setting [1], more than 1000 nM; under setting [2], 4720 nM. As to `Cc1cc(-c2cc(Cl)ccc2OCCn2c(C)nc3cc(Cl)c(N4CCCC4(C)C)c(C#N)c3c2=O)c2scc(C(=O)O)c2n1` [compound 920], the IC50 under setting [1] was less than 50 nM and the IC50 under setting [2] was 5.76 nM. As to `Cc1nc2cc(C(F)(F)F)c(N3CCN(C)CC3)c(C#N)c2c(=O)n1CCOc1ccc(Cl)cc1-c1ccc(F)c2c(C(=O)O)csc12` [compound 1214], the IC50 under setting [1] was less than 50 nM and the IC50 under setting [3] is 5.08 nM. Regarding `Cc1cc(-c2cc(Cl)ccc2OCCn2c(C)nc3cc(C(F)(F)F)c(N4CCN(C)CC4)c(C#N)c3c2=O)c(C)c(C(=O)O)n1` [compound 1226], the IC50 was less than 50 nM under setting [1] and 6.63 nM under setting [3]. Turning to `Cc1cc(-c2cc(Cl)ccc2OCCn2c(C)nc3cc(C(F)(F)F)c(N4CCS(=O)(=O)CC4)c(C#N)c3c2=O)c2scc(C(=O)O)c2n1` [compound 867], the IC50 is less than 50 nM under setting [1] and 6.61 nM under setting [2]. As for `CCN(c1ncc2nc(C)n(CC#Cc3ccc(Cl)cc3-c3ccnc4c(C(=O)NS(C)(=O)=O)csc34)c(=O)c2c1C#N)C1CCN([C@H]2C[C@@H](OC(F)(F)F)C2)CC1` [compound 1776], under setting [3], the IC50 is 3.65 nM.

Turning to `Cc1cc(-c2cc(Cl)ccc2OCCn2c(C)nc3cnc(N4CCC(O)C4)c(C#N)c3c2=O)c2sc(C)c(C(=O)O)c2n1` (stereo not drawn) [compound 1236], the IC50 by setting is: under setting [1], less than 50 nM; under setting [3], 33.9 nM. On to `Cc1cc(-c2c(C(F)(F)F)cc3nc(C)n(CCOc4ccc(Cl)cc4-c4cc(C)nc5c(C(=O)O)csc45)c(=O)c3c2C#N)c(F)cn1` [compound 471], for which the IC50 runs as follows: under setting [1], less than 50 nM; under setting [2], 28.8 nM. The like results for `Cc1nc2c(C(F)F)ccc(C#N)c2c(=O)n1CCOc1ccc(Cl)cc1-c1cccc(C(=O)O)c1` [compound 37] were, in that order, less than 50 nM and 39.6 nM. Taken in the same sequence, the figures for `Cc1nc2c(N3CCNCC(F)(F)C3)ncc(C#N)c2c(=O)n1CCOc1ccc(Cl)cc1-c1ccnc2c(C(=O)O)csc12` [compound 837] were less than 50 nM and 13.4 nM. On to `Cc1nc2cnc(C3=CCN(C4CC4)CC3)c(C#N)c2c(=O)n1CC#Cc1ccc(Cl)cc1-c1ccnc2c(C(=O)O)csc12` [compound 1461], for which the IC50 under setting [3] is 13.8 nM.

`Cc1nc2cc(C(F)(F)F)cc(C#N)c2c(=O)n1CCOc1ccc(Cl)cc1-c1cc(C(F)F)nc2c(C(=O)O)csc12` [compound 563]: the IC50 is, setting by setting: under setting [1], less than 50 nM; under setting [2], 14.4 nM. The like results for `Cc1nc2cc(C(F)(F)F)cc(C#N)c2c(=O)n1CCOc1ccc(Cl)cc1-c1csc2c(C(=O)O)ccnc12` [compound 299] were, in that order, less than 50 nM and 22.3 nM. For `Cc1nc2cnc(N(C)C3CCN(CC(C)(F)F)CC3)c(C#N)c2c(=O)n1CC#Cc1ccc(Cl)cc1-c1ccnc2c(C(=O)NS(=O)(=O)CC(F)(F)F)csc12` [compound 1595], the IC50 under setting [3] was 54.8 nM.

`Cc1cc(-c2cc(Cl)ccc2OCCn2c(C)nc3cncc(C#N)c3c2=O)c2scc(C(=O)NS(C)(=O)=O)c2n1` [compound 600]: the IC50 under setting [1] is less than 50 nM and the IC50 under setting [2] is 14.2 nM.

On to `Cc1nc2cnc(N(C)C3CCN(CC(F)(F)Cl)CC3)c(C#N)c2c(=O)n1CC#Cc1ccc(Cl)cc1-c1ccnc2c(C(=O)O)csc12` [compound 1585], for which the IC50 under setting [3] is 15.2 nM. Turning to `Cc1nc2cc(C(F)(F)F)cc(S)c2c(=O)n1CCOc1ccc(Cl)cc1-c1ccnc2c(C(=O)O)csc12` [compound 221], the IC50 runs as follows: under setting [1], 50 to 1000 nM; under setting [2], 113 nM. The like results for `Cc1nc2ccc(S(=O)(=O)N(C)C)c(C#N)c2c(=O)n1CCOc1ccc(Cl)cc1-c1ccnc2c(C(=O)O)csc12` [compound 196] were, in that order, less than 50 nM and 25.7 nM. For `C#Cc1cc2nccc(-c3cc(Cl)ccc3OCCn3c(C)nc4cc(C(F)(F)F)c(N5CCN(C)CC5)c(C#N)c4c3=O)c2s1` [compound 1244], the IC50 reads like this: under setting [1], less than 50 nM; under setting [3], 19.4 nM. For `Cc1cc(-c2cc(Cl)ccc2OCCn2c(C)nc3cc(C(F)(F)F)c(CCCN(C)C)c(C#N)c3c2=O)c2scc(C(=O)O)c2n1` [compound 709], the IC50 was 50 to 1000 nM under setting [1] and 56.7 nM under setting [2]. Regarding `CCN(c1ncc2nc(C)n(CC#Cc3ccc(Cl)cc3-c3ccnc4c(C(=O)NS(=O)(=O)CC(C)(C)C#N)csc34)c(=O)c2c1C#N)C1CCN(C2COC2)CC1` [compound 1737], the IC50 under setting [3] is 14.3 nM. Take `Cc1nc2cc(C(F)(F)F)cc(C#N)c2c(=O)n1CCOc1ccc(Cl)cc1-c1ccnc2c(C(=O)O)cn(C)c12` [compound 320]: the IC50 is, setting by setting: under setting [1], less than 50 nM; under setting [2], 43.5 nM. For `Cc1nc2cnc(C3CCCN(CC(F)F)C3)c(C#N)c2c(=O)n1CCCc1ccc(Cl)cc1-c1ccnc2c(C(=O)O)csc12` (stereo not drawn) [compound 1571], the IC50 under setting [3] was 20.5 nM.

Regarding `Cc1nc2cc(C(F)(F)F)cc(C#N)c2c(=O)n1CCOc1ccc(Cl)cc1-c1ccnc2cc(C(=O)O)sc12` [compound 199], the IC50 runs as follows: under setting [1], 50 to 1000 nM; under setting [2], 143 nM. Regarding `Cc1cc(-c2cc(Cl)ccc2OCCn2c(C)nc3cc(C(F)(F)F)c(N4CCN(C)CC4)c(C#N)c3c2=O)c2sc(C)c(C(=O)O)c2n1` [compound 1416], under setting [3], the IC50 was 12.7 nM. Turning to `Cc1nc2cnc(C3CC3)c(C#N)c2c(=O)n1CCOc1ccc(Cl)cc1Sc1cccc(C(=O)O)n1` [compound 940], the IC50 is, setting by setting: under setting [1], 50 to 1000 nM; under setting [2], 470 nM.
